As a reminder, the IC50 is the concentration that inhibits the measured activity by half.

The test system of one data set is A-549 (lung cancer). Description: Antiproliferative assay, A-549. In kind it is cell-based. Conditions: Homo sapiens, A549; A-549 lung cancer cells; read-out: Antiproliferative activity IC50 ± SEM, A-549. The text has this: The dose–response experiments established the IC50 values for the new compounds. The given findings were obtained from at least two distinct studies, each comprising three repeats per concentration. Appendix A (SI File) provides experimental details.[38,39]
The MTT assay[43] was utilized to assess the antiproliferative effects of compounds 10a–l on four human cancer cell lines: HT-29 (colon cancer), Panc-1 (pancreatic cancer), A-549 (lung cancer), and MCF-7 (breast cancer). […]
4.2.2. Assay for antiproliferative effect
To explore the antiproliferative potential of compounds propidium iodide fluorescence assay was performed using different cell lines such as Panc-1 (pancreas cancer cell line), MCF-7 (breast cancer cell line), HT-29 (colon cancer cell line) and A-549 (epithelial cancer cell line), respectively. To calculate the total nuclear DNA, a fluorescent dye (propidium iodide, PI) is used which can attach to the DNA, thus offering a quick and precise technique. PI cannot pass through the cell membrane and its signal intensity can be considered as directly proportional to quantity of cellular DNA. Cells whose cell membranes are damaged or have changed permeability are counted as dead ones. The assay was performed by seeding the cells of different cell lines at a density of 3000-7500 cells/well (in 200μl medium) in culture plates followed by incubation for 24h at 37 °C in humidified 5%CO2/95% air atmospheric conditions. The medium was removed; the compounds were added to the plates at 10 μM concentrations (in 0.1% DMSO) in triplicates, followed by incubation for 48h. DMSO (0.1%) was used as control. After incubation, medium was removed followed by the addition of PI (25 μl, 50μg/mL in water/medium) to each well of the plates. At - 80 °C, the plates were allowed to freeze for 24 h, followed by thawing at 25 °C. A fluorometer (Polar-Star BMG Tech) was used to record the readings at excitation and emission wavelengths of 530 and 620 nm for each well. The percentage cytotoxicity of compounds was calculated using […]
Where ATC= Absorbance of treated cells and AC= Absorbance of control. Erlotinib was used as positive control in the assay. […]

The next data set concerns caspase-9. Put plainly: Caspase-9 activation assay in MCF-7 cells. The class given is cell-based, human. The note with it: for Caspase-9 Fold change: vs untreated control. As for the experimental part:
Compounds10k and 10l were tested as caspases-3, 8, 9, Bax and p53 activators and as down-regulators of the anti-apoptotic protein Bcl2 against the MCF-7 breast cancer cell line.[41] Appendix A gives more details.
To elucidate the apoptotic processes of compounds 10k and 10l, whether via the intrinsic or extrinsic pathway, their impacts on caspase-8 and caspase-9 were evaluated. […] This signifies the activation of both intrinsic and extrinsic pathways (Table 5).
4.2.6. Caspase-8/9 activation assay
Cells were obtained from American Type Culture Collection, cells were grown in RPMI 1640 containing 10% fetal bovine serum at 37°C, stimulated with the compounds to be tested for caspase 8/9, and lysed with Cell Extraction Buffer. This lysate was diluted in Standard Diluent Buffer over the range of the assay and measured for human active caspase-8/9 content. (Cells are Plated in a density of 1.2 – 1.8 × 10,000 cells/well in a volume of 100µl complete growth medium + 100 ul of the tested compound per well in a 96-well plate for 24 hours before the enzyme assay). The absorbance of each microwell was read on a spectro-photometer at 450 nm. […]

Data set [1] is described as follows: Cytotoxicity against normal cell line (MTT). The class given is cell-based, human. The note with it: WI-38 normal human diploid cells; normal human diploid WI-38 cells, MTT.
Data set [2] relates to normal human diploid cell line (WI-38). Description: Cytotoxicity against normal cell line (MTT). The class given is cell-based. The note with it: for Selectivity index (SI), A-549: WI-38 vs A-549; for Selectivity index (SI), HT-29: WI-38 vs HT-29; for Selectivity index (SI), MCF-7: WI-38 vs MCF-7; for Selectivity index (SI), Panc-1: WI-38 vs Panc-1.
The target of a further data set is EGFR (Homo sapiens, UniProt P00533). Put plainly: EGFR inhibitory assay (EGFR-TK test). Conditions: for EGFR inhibitory potency relative to erlotinib: more potent than erlotinib.
EGFR, sequence (P00533 669-1210): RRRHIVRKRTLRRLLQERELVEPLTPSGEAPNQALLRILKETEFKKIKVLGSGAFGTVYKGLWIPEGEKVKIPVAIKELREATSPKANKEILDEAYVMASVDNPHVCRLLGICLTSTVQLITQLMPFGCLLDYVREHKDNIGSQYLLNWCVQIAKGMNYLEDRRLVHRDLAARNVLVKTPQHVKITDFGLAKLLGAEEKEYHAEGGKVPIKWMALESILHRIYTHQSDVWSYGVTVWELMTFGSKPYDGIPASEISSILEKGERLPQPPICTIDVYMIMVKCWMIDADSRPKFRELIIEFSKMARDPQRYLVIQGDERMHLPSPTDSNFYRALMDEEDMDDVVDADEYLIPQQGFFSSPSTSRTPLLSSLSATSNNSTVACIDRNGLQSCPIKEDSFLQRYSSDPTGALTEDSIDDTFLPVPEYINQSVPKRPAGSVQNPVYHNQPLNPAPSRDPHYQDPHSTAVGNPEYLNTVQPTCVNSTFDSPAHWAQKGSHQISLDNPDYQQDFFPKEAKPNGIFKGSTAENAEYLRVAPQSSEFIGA

Bounds are passed on as bounds.

Protocol for EGFR: Baculoviral expression vectors including pBlueBacHis2B and pFASTBacHTc were used
5ʹ upstream to the EGFR sequence comprised a sequence that encoded (His)6. Sf-9 cells were infected for 72h for protein expression. The pellets of Sf-9 cells were solubilized in a buffer containing sodium vanadate (100 μM), aprotinin (10 μg/mL), triton (1%), HEPES
buffer(50mM), ammonium molybdate (10 μM), benzamidine HCl (16 μg/mL), NaCl (10 mM),leupeptin (10 μg/mL) and pepstatin (10 μg/mL) at 0°C for 20 min at pH 7.4, followed by centrifugation for 20 min. To eliminate the nonspecifically bound material, a Ni-NTA super flow packed column was used to pass through and wash the crude extract supernatant first with 10mM and then with 100 mM imidazole. Histidine-linked proteins were first eluted with 250 and then with 500 mM imidazole subsequent to dialysis against NaCl (50 mM), HEPES (20 mM), glycerol (10%) and 1 μg/mL each of aprotinin, leupeptin and pepstatin for 120 min. The purification was performed either at 4 °C or on ice. To record autophosphorylation level, EGFR kinase assay was carried out on the basis of DELFIA/Time-Resolved Fluorometry. The compounds were first
dissolved in DMSO absolute, subsequent to dilution to appropriate concentration using HEPES
(25 mM) at pH 7.4. Each compound (10 μL) was incubated with recombinant enzyme (10 μL, 5
ng for EGFR, 1:80 dilution in 100 mM HEPES) for 10 min at 25 °C, subsequent to the addition of
5X buffer (10 μL, containing 2 mM MnCl2, 100 μM Na3VO4, 20 mM HEPES and 1 mM DTT)
and ATP-MgCl2 (20 μL, containing 0.1 mM ATP and 50 mM MgCl2) and incubation for 1h. The
negative and positive controls were included in each plate by the incubation of enzyme either with
or without ATP-MgCl2. The liquid was removed after incubation and the plates were washed
thrice using a wash buffer. The Europium-tagged antiphosphotyrosine antibody (75 μL, 400 ng)
was added to each well followed by incubation of 1h and then washing of the plates using buffer.
The enhancement solution was added to each well and the signal was recorded at excitation and
The autophosphorylation percentage inhibition by compounds was calculated using the following equation:
calculated. The majority of signals detected by antiphosphotyrosine antibody were from EGFR because the enzyme preparation contained low impurities.

Consider `COc1ccc(-c2nc(SCc3nc(-c4ccc(Cl)cc4)no3)[nH]c(=O)c2C#N)cc1` [Compound 10k, 2-(((3-(4-Chlorophenyl)-1,2,4-oxadiazol-5-yl)methyl)thio)-4-(4-methoxyphenyl)-6-oxo-1,6-dihydropyrimidine-5-carbonitrile], for which, in the data set on A-549 (lung cancer), the IC50 was 23 ± 1 nM. In addition, in the data set on caspase-9, the “Caspase-9 Conc” value was 24 ± 1 ng/mL and the “Caspase-9 Fold change” value is listed as 24 fold. The half-maximal inhibitory concentration (IC50) in data set [1] was over 200 nM. In addition, in data set [2], the “Selectivity index (SI), A-549” value is listed as over 8.0; the “Selectivity index (SI), HT-29” value is listed as over 8.0; the “Selectivity index (SI), MCF-7” value is recorded as over 10.0; the “Selectivity index (SI), Panc-1” value is on record as over 9.0. For the same compound, on EGFR, the IC50 stood at 57 ± 3 nM and the “EGFR inhibitory potency relative to erlotinib” value worked out at 1.4 fold.

As to `COc1ccc(-c2noc(CSc3nc(-c4ccc(OC)cc4)c(C#N)c(=O)[nH]3)n2)cc1` [Compound 10l, 2-(((3-(4-Methoxyphenyl)-1,2,4-oxadiazol-5-yl)methyl)thio)-4-(4-methoxyphenyl)-6-oxo-1,6-dihydropyrimidine-5-carbonitrile], the IC50 with A-549 (lung cancer) was 28 ± 1 nM. Further, in the data set with caspase-9, the “Caspase-9 Conc” value was 22 ± 1 ng/mL and the “Caspase-9 Fold change” value came to 22 fold. For the same compound, the IC50 in data set [1] is over 200 nM. Also, in data set [2], the “Selectivity index (SI), A-549” value is reported as over 7.0; the “Selectivity index (SI), HT-29” value is reported as over 7.0; the “Selectivity index (SI), MCF-7” value is reported as over 9.0; the “Selectivity index (SI), Panc-1” value was over 7.0. On EGFR, the IC50 was 61 ± 4 nM and the “EGFR inhibitory potency relative to erlotinib” value is on record as 1.3 fold.

The values above are taken from publication PMC12530851, “Design, synthesis, and apoptotic antiproliferative activity of novel dihydropyrimidine-5-carbonitrile/1,2,4-oxadiazole hybrids as dual EGFR/VEGFR-2 inhibitors endowed with antioxidant activity” (RSC Advances, 2025).
